Reference: ChEMBL document CHEMBL1201862, “PubChem BioAssay data set” (2004)
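Cultured in 96-well plates, cells were exposed to test compound for 48 hours across five concentrations. Here, GI50 denotes the concentration required for 50% inhibition of growth.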 Active and inactive are the calls of the source. Cut-off read from the data, not from the text of the source: active = GI50 up to about 1.1 µM and inactive = higher.

Assays:
Experiment in all cases: growth of human tumour cells (NCI), 48 h
[1] = test system: RPMI-8226
[2] = test system: SK-MEL-28
[3] = test system: NCI-H226
[4] = test system: K562
[5] = test system: EKVX
[6] = test system: NCI-H460
[7] = test system: SK-OV-3
[8] = test system: Malme-3M
[9] = test system: SK-MEL-2
[10] = test system: COLO 205
[11] = test system: NCI-H522
[12] = test system: HOP-92
[13] = test system: OVCAR-3
[14] = test system: SR
[15] = test system: UACC-62
[16] = test system: CCRF-CEM
[17] = test system: OVCAR-5
[18] = test system: HOP-62
[19] = test system: MDA-N
[20] = test system: BT-549

Compound	GI50 [1]	GI50 [2]	GI50 [3]	GI50 [4]	GI50 [5]	GI50 [6]	GI50 [7]	GI50 [8]	GI50 [9]	GI50 [10]	GI50 [11]	GI50 [12]	GI50 [13]	GI50 [14]	GI50 [15]	GI50 [16]	GI50 [17]	GI50 [18]	GI50 [19]	GI50 [20]
NC1=NS(=O)(=O)Nc2nc(-c3ccccc3)c(-c3ccccc3)nc21	> 100 µM (inactive)	> 100 µM (inactive)	> 100 µM (inactive)	> 100 µM (inactive)	> 100 µM (inactive)	> 100 µM (inactive)	> 100 µM (inactive)	> 100 µM (inactive)	> 100 µM (inactive)	> 100 µM (inactive)	> 100 µM (inactive)	> 100 µM (inactive)	> 100 µM (inactive)	> 100 µM (inactive)	> 100 µM (inactive)	> 100 µM (inactive)	> 100 µM (inactive)			
CC1NS(=O)(=O)N(C)C1=O (stereo not given)	> 100 µM (inactive)	> 100 µM (inactive)	> 100 µM (inactive)	> 100 µM (inactive)			> 100 µM (inactive)	> 100 µM (inactive)	> 100 µM (inactive)		> 100 µM (inactive)	> 100 µM (inactive)	> 100 µM (inactive)	> 100 µM (inactive)	> 100 µM (inactive)	> 100 µM (inactive)	> 100 µM (inactive)	> 100 µM (inactive)		
COc1cc(C)c(/C=C/C(=O)N2C(=O)OC[C@@H]2c2ccccc2)c(C)c1	48.3 µM (inactive)	> 100 µM (inactive)	> 100 µM (inactive)	78.9 µM (inactive)	98.9 µM (inactive)		> 100 µM (inactive)	> 100 µM (inactive)	> 100 µM (inactive)	> 100 µM (inactive)	> 100 µM (inactive)	> 100 µM (inactive)	> 100 µM (inactive)			61.8 µM (inactive)	> 100 µM (inactive)	> 100 µM (inactive)	> 100 µM (inactive)	
CC(=O)OC1C2CCC1C1C2N=NN1c1ccc([N+](=O)[O-])cc1 (stereo not given)	> 100 µM (inactive)	> 100 µM (inactive)	> 100 µM (inactive)		> 100 µM (inactive)	> 100 µM (inactive)	> 100 µM (inactive)	> 100 µM (inactive)	> 100 µM (inactive)	> 100 µM (inactive)	64.4 µM (inactive)	> 100 µM (inactive)	> 100 µM (inactive)	15.7 µM (inactive)	> 100 µM (inactive)	> 100 µM (inactive)	> 100 µM (inactive)	> 100 µM (inactive)		> 100 µM (inactive)
COc1cc(CNc2cnc3cc(N)ccc3n2)cc(OC)c1OC		> 100 µM (inactive)		5.53 µM (inactive)	76.7 µM (inactive)	30.8 µM (inactive)	20.7 µM (inactive)	52.5 µM (inactive)	1.14 µM (inactive)	22.4 µM (inactive)	18.8 µM (inactive)	58.5 µM (inactive)	12.6 µM (inactive)	5.65 µM (inactive)	12.7 µM (inactive)	31.4 µM (inactive)	68.2 µM (inactive)	51.4 µM (inactive)		
Cc1ccc(C2(O)CC(c3ccc([N+](=O)[O-])o3)=NN2C(=O)COc2ccccc2Cl)cc1 (stereo not given)	3.53 µM (inactive)	15.2 µM (inactive)	50.5 µM (inactive)	7.26 µM (inactive)	13.6 µM (inactive)	5.73 µM (inactive)	81.1 µM (inactive)	13.8 µM (inactive)	8.07 µM (inactive)	3.78 µM (inactive)	13.1 µM (inactive)	27.4 µM (inactive)	3.94 µM (inactive)	3.24 µM (inactive)	3.91 µM (inactive)	5.45 µM (inactive)	32.7 µM (inactive)	29.2 µM (inactive)		
O=c1c2cccnc2ncn1CCN1CCCCC1		> 100 µM (inactive)	> 100 µM (inactive)	> 100 µM (inactive)	> 100 µM (inactive)	> 100 µM (inactive)	> 100 µM (inactive)	> 100 µM (inactive)	> 100 µM (inactive)	> 100 µM (inactive)	> 100 µM (inactive)	> 100 µM (inactive)	> 100 µM (inactive)	> 100 µM (inactive)	> 100 µM (inactive)	> 100 µM (inactive)	> 100 µM (inactive)	> 100 µM (inactive)		
O=C(Nc1ccccc1)c1cc2c(cc1Cl)SC(NNCCO)=NS2(=O)=O	> 100 µM (inactive)	> 100 µM (inactive)	> 100 µM (inactive)	> 100 µM (inactive)	> 100 µM (inactive)	> 100 µM (inactive)	> 100 µM (inactive)		> 100 µM (inactive)	> 100 µM (inactive)		> 100 µM (inactive)		> 100 µM (inactive)	> 100 µM (inactive)	> 100 µM (inactive)		> 100 µM (inactive)		> 100 µM (inactive)
CCCCCCNC(=O)c1cnc(Cl)cn1	29 µM (inactive)	24 µM (inactive)	10 µM (inactive)	13 µM (inactive)	5.93 µM (inactive)	19.3 µM (inactive)	22.9 µM (inactive)	16.7 µM (inactive)	14.7 µM (inactive)	18.4 µM (inactive)	0.206 µM (active)	3.15 µM (inactive)		4.3 µM (inactive)	17.2 µM (inactive)	13.7 µM (inactive)	17.3 µM (inactive)	16.1 µM (inactive)		26.2 µM (inactive)
COC(=O)C(=C\Sc1ccccc1)/C=C/C(=O)OC(C)(C)C	3.06 µM (inactive)	13.4 µM (inactive)	15.6 µM (inactive)	3.01 µM (inactive)	10.6 µM (inactive)	17.7 µM (inactive)	24 µM (inactive)	15.9 µM (inactive)	12 µM (inactive)	5.3 µM (inactive)	5.07 µM (inactive)	4.4 µM (inactive)	5.25 µM (inactive)	2.87 µM (inactive)	15.3 µM (inactive)	1.89 µM (inactive)	15.4 µM (inactive)	19.5 µM (inactive)		
CCC1(c2ccc(N3C(=O)c4cccc5cc([N+](=O)[O-])cc(c45)C3=O)cc2)CCC(=O)NC1=O (stereo not given)	11.6 µM (inactive)	22.2 µM (inactive)	10.9 µM (inactive)	17.1 µM (inactive)	11.7 µM (inactive)	6.35 µM (inactive)	15 µM (inactive)	20.1 µM (inactive)	> 100 µM (inactive)	9.57 µM (inactive)	1.81 µM (inactive)	2.16 µM (inactive)	20.7 µM (inactive)		21 µM (inactive)	7.74 µM (inactive)	60.8 µM (inactive)	9.12 µM (inactive)		13.5 µM (inactive)
CCc1nc2c(O)ccc(O)c2nc1C	3.8 µM (inactive)	19.6 µM (inactive)	15.8 µM (inactive)	4.08 µM (inactive)	17.3 µM (inactive)	19.2 µM (inactive)	20 µM (inactive)	15.8 µM (inactive)	18 µM (inactive)	2.53 µM (inactive)	2.56 µM (inactive)	5.64 µM (inactive)	14.7 µM (inactive)	18.2 µM (inactive)	14.3 µM (inactive)	2.9 µM (inactive)	19.3 µM (inactive)	18 µM (inactive)		
CCOC(=O)C=C1CCC2(CC1)OCCO2	> 100 µM (inactive)	> 100 µM (inactive)	> 100 µM (inactive)	> 100 µM (inactive)		> 100 µM (inactive)	> 100 µM (inactive)	> 100 µM (inactive)	> 100 µM (inactive)	> 100 µM (inactive)	> 100 µM (inactive)	> 100 µM (inactive)	> 100 µM (inactive)	> 100 µM (inactive)	> 100 µM (inactive)	> 100 µM (inactive)	> 100 µM (inactive)			
CC12OC3CC(O1)C1(C=O)C4CCC5(C)C(c6ccc(=O)oc6)CCC5(O)C4CCC1(C3)O2 (stereo not given)	0.0313 µM (active)	0.491 µM (active)	0.417 µM (active)	0.265 µM (active)		0.0518 µM (active)	0.213 µM (active)	0.198 µM (active)	0.268 µM (active)	0.483 µM (active)	0.0479 µM (active)	0.339 µM (active)	0.13 µM (active)	0.0498 µM (active)	0.288 µM (active)	0.0735 µM (active)	0.383 µM (active)	0.146 µM (active)		
O=C(/C=C/c1ccsc1)c1ccc(Cl)s1	17.1 µM (inactive)	55.1 µM (inactive)	53.3 µM (inactive)	> 10 µM (inactive)	> 100 µM (inactive)	> 100 µM (inactive)	> 100 µM (inactive)	> 100 µM (inactive)	> 100 µM (inactive)	> 100 µM (inactive)				24 µM (inactive)	> 100 µM (inactive)	28.4 µM (inactive)		> 100 µM (inactive)	56.6 µM (inactive)	
O=C1C(Cl)C(c2cc(Br)ccc2O)N1n1cnc2ccccc2c1=O (stereo not given)	5.4 µM (inactive)	14.1 µM (inactive)	6.87 µM (inactive)	5.27 µM (inactive)	3.4 µM (inactive)	6.62 µM (inactive)	20 µM (inactive)	20.5 µM (inactive)	22.1 µM (inactive)	27.7 µM (inactive)	13.2 µM (inactive)	15.7 µM (inactive)	6.93 µM (inactive)	2.74 µM (inactive)	11.5 µM (inactive)	3.28 µM (inactive)	28.5 µM (inactive)	13.7 µM (inactive)		
